Test system: miR-193a-3p (RNA, miRNA) AACUGGCCUACAAAGUCCCAGU
Assay: single-strand gel shift
Details: 37 °C 30 min, 200 µM Trp; 15% native PAGE, 0.5x TBE

Compound: N[C@@H](Cc1c[nH]c2ccccc12)C(=O)O
- binding: yes

— paper PMC11336974 (2024)
